Data as given in ChEMBL document CHEMBL2074226, “Molecular evidence of organic ion transporters in the rat adrenal cortex with adrenocorticotropin-regulated zonal expression” (Endocrinology, 2003).

Molecular target: T1, Solute carrier family 22 member 6 (Rattus norvegicus, UniProt O35956)
T1 sequence (O35956 whole entry): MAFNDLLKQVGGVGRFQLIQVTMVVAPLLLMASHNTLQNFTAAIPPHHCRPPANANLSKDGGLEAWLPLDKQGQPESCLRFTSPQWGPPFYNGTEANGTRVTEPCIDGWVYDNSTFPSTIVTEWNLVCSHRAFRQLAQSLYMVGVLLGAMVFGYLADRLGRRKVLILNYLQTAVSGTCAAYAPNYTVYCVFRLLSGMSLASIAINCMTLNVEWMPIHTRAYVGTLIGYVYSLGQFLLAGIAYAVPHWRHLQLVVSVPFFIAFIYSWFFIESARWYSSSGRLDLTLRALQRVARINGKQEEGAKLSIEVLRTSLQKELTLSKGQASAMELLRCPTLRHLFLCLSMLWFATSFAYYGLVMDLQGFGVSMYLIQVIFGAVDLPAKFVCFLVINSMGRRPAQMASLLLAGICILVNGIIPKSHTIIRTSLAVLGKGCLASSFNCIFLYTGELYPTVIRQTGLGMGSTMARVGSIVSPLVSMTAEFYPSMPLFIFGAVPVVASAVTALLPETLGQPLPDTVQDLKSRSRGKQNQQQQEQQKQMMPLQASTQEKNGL
Assay: TP_TRANSPORTER: inhibition of PAH uptake (PAH: 10 uM, Corticosterone: 500 uM) in Xenopus laevis oocytes
Type: functional, cell-based
Settings: oocyte

## C[C@]12C[C@H](O)[C@H]3[C@@H](CCC4=CC(=O)CC[C@@]43C)[C@@H]1CC[C@@H]2C(=O)CO [CORTICOSTERONE]
  Activity: inhibitor [(at a rough estimate) 25 % of control]
